Test results taken from patent US11679100B2, “Methods of enhancing immunity” (The Regents of the University of California, priority 2018, dated 2023).
Blank lines part the entries; values can stand above or below the compound they belong to.

What was measured:
[1] = molecular target: T1, Stat3 (Mus musculus, UniProt P42227); experiment: mRNA expression in macrophages incubated with Stat3 inhibitor; format: cell-based, murine
T1 construct: endogenous in cells; host or cells: murine bone marrow derived macrophages (WT and Itgam-/-)
T1 sequence (P42227 whole entry): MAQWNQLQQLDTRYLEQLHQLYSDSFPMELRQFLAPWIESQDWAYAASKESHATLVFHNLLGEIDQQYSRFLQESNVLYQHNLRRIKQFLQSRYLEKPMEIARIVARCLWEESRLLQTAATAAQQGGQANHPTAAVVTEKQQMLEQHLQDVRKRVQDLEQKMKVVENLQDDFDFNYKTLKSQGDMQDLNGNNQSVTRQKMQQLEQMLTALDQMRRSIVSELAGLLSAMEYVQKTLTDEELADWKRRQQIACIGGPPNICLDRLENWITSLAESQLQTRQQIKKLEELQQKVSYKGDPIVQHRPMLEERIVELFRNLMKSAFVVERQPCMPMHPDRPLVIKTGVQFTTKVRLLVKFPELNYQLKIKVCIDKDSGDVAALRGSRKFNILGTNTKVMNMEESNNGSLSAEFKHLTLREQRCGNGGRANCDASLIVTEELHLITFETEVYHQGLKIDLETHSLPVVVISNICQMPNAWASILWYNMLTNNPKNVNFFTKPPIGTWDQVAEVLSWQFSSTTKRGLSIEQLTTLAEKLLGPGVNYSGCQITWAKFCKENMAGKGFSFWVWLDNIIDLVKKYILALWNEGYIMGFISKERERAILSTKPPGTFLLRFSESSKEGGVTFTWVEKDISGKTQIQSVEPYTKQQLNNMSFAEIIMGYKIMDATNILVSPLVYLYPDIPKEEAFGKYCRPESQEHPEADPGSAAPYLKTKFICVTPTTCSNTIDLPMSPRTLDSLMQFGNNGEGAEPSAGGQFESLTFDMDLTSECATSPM
Protocol: Macrophage Polarization—Bone marrow derived macrophages were polarized with either IFNγ (20 ng/ml, Peprotech) plus LPS (100 ng/ml, Sigma) or LPS alone for 24 h or IL-4 (20 ng/ml, Peprotech) for 24-48 h. In some cases, macrophages were incubated with inhibitors of Stat3 ([…]) or cMyc (10058-F4, Selleck). In other experiments, BMM were treated with LLC tumor conditioned media (TCM) or 100 ng/ml TGF-β (PeproTech) for 6 h to analyze changes in protein and gene expression levels. TCM was obtained by culturing LLC in serum free media for 18 h followed by collecting the supernatant and sterile filtering prior to use. In some experiments TGF-β signaling was inhibited using SB5253324 added 30 min prior and during the 6 h stimulation. Total RNA was harvested from macrophages using the RNeasy Mini Kit (Qiagen) according to the manufacturer's instructions. Secreted protein was measured in culture supernatants by ELISA assays.
Analysis of Gene Expression—Total RNA was isolated from cells using RNeasy Mini Kit (Qiagen). cDNA was prepared using 1 μg RNA with the qScript cDNA Synthesis Kit (Quanta Biosciences) or the SuperScript III First-Strand Synthesis Kit (Invitrogen). […]

[2] = system: LLC tumors; experiment: Imatinib treatment of WT and Itgam-/- mice bearing LLC tumors; format: in vivo
[3] = system: LLC tumors; experiment: Gemcitabine treatment of WT and Itgam-/- mice with LLC tumors; format: in vivo
Protocol: Tumor Studies—Subcutaneous tumor studies: 5×10^5 LLC or B16 cells were injected subcutaneously into syngeneic (C57BL/6) 6- to 8-week old WT or Itgam^−/− mice (n=18). Tumors were excised at 7, 14 or 21 days, cryopreserved in OCT, lysed for RNA purification or collagenase-digested for flow cytometric analysis of CD11b+, F4/80+ and Gr1+ expression. Tumor volumes were calculated using the equation (l^2×w)/2. CL66-luc cells (0.5×10^6 cells) were suspended in 50 μL of basement membrane extract Matrigel (BD Pharmingen) in PBS (1:1) and inoculated orthotopically in the fourth mammary fat pad of female Balb/cJ mice. Tumor dimensions were measured every 2 days, and tumor volume was calculated using the equation: V (mm^3)=[…], where length is the longest diameter of the tumor and width is the shorter diameter.

immune suppressive factor expression in Itgam-/- macrophages [1]: reduced to WT macrophage levels
SMILES: C1=Cc2nc1cc1ccc([nH]1)c(-c1ccccc1)c1nc(cc3ccc([nH]3)c2-c2ccccc2)C=C1 [5,15-DPP]
Il6 expression in Itgam-/- macrophages [1]: did not affect the high levels of Il6 expression

SMILES: Cc1ccc(NC(=O)c2ccc(CN3CCN(C)CC3)cc2)cc1Nc1nccc(-c2cccnc2)n1 [Imatinib, imatinib]
tumor growth and vascular normalization in Itgam-/- mice [2]: suppressed the enhanced tumor growth and increased vascular normalization observed in Itgam−/− mice

SMILES: Nc1ccn([C@@H]2O[C@H](CO)[C@@H](O)C2(F)F)c(=O)n1 [gemcitabine]
tumor growth in Itgam-/- mice versus WT mice [3]: suppressed tumor growth more profoundly than gemcitabine treatment of WT mice
